Earlier results in US20100285081A1, “Bactericidal Nanofibers, and Methods of Use Thereof” (MASSACHUSETTS INSTITUTE OF TECHNOLOGY, priority 2007, published 2010).

How the values were obtained:
E. coli = conditions: from Buxbaum et al. 2006
S. epidermidis = conditions: from Buxbaum et al. 2006

[H]/N=C(\N/C(=N/[H])NCCCCCCNC(=N)NC(=N)Nc1ccc(Cl)cc1)Nc1ccc(Cl)cc1 [CHX, chlorhexidine]
minimum inhibitory concentration of CHX (E. coli): 2 to 8 µg/mL | minimum inhibitory concentration of CHX (S. epidermidis): 0.5 to 2 µg/mL
